The source made the active and inactive calls. No cut-off for these calls is given here.
Columns and labels:
B16-F10 [1] = test: Antitumor immunity in C57 mouse implanted with mouse B16-F10 cells assessed as increase in CD3+ CD8+ cytotoxic T cells in tumor at 2.5 mg/kg, ip administered every day for 14 days in the presence of NP19 by flow cytometric analysis (reference value: 0.340%); assay type: functional; details: time 14 day
B16-F10 [2] = test: Antitumor immunity in C57 mouse implanted with mouse B16-F10 cells assessed as increase in CD3+ CD8+ cytotoxic T cells in tumor at 5 mg/kg, ip administered every day for 14 days by flow cytometric analysis (reference value: 0.340%); assay type: functional; details: time 14 day
B16-F10 [3] = test: Antitumor activity against mouse B16-F10 cells implanted in C57 mouse assessed as tumor growth inhibition at 5 mg/kg, ip administered every day for 14 days relative to control; assay type: functional; details: B16-F10, 336 h, time 14 day, read-out: TGI
[4] = Antiproliferative activity against parental human A549S cells assessed as inhibition of cell proliferation incubated for 48 hrs by MTT assay; assay type: functional, cell-based
[5] = Resistance index, ratio of IC50 for antiproliferative activity against paclitaxel resistant human A2780/Taxol cells to IC50 for antiproliferative activity against parental human A2780S cells; assay type: functional
MCF7 = test: Antiproliferative activity against human MCF7 cells assessed as inhibition of cell proliferation incubated for 48 hrs by MTT assay; assay type: functional, cell-based; details: MCF7, 48 h
HeLa = test: Antiproliferative activity against human HeLa cells assessed as inhibition of cell proliferation incubated for 48 hrs by MTT assay; assay type: functional, cell-based
Tubulin (Sus scrofa) = Tubulin (Sus scrofa) (UniProt P02554+P02550); test: (§1) Inhibition of pig brain tubulin polymerization in the presence of GTP by spectrophotometric analysis; assay type: tissue-based
Chain of Tubulin (Sus scrofa) (P02550 whole entry, looked up): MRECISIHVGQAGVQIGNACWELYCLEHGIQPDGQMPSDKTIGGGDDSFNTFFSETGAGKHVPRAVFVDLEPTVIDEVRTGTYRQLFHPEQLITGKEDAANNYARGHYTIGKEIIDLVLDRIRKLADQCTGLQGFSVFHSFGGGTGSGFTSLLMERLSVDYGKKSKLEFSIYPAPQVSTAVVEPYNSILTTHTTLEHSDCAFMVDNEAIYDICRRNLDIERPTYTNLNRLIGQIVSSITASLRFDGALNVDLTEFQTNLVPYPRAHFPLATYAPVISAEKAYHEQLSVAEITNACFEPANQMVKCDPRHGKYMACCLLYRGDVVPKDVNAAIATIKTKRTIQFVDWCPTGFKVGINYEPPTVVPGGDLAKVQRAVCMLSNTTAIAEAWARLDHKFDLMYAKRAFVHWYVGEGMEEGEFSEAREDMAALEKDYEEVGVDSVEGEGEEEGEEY
Chain of Tubulin (Sus scrofa) (P02554 whole entry, looked up): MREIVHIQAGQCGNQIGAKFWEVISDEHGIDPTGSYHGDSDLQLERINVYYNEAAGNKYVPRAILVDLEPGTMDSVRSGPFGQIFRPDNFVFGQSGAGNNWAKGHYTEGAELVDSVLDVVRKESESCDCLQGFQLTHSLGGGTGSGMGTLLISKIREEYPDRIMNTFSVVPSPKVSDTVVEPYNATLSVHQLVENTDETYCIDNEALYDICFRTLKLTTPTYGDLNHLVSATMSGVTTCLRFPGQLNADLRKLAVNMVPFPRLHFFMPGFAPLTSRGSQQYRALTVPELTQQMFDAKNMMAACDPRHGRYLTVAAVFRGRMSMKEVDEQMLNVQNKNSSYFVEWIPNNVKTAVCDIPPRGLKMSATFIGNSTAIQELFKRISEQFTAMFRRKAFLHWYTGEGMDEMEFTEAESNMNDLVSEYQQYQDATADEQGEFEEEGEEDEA

Tubulin = Tubulin (Sus scrofa, UniProt P02554+P02550); test: as §1; assay type: tissue-based
Tubulin (Homo sapiens) = Tubulin (Homo sapiens) (UniProt P68371+Q9H4B7+P0DPH7+P68366+Q13509+Q71U36+P04350+Q3ZCM7+P07437+P68363+Q9BQE3+Q6PEY2+Q13885+Q9BVA1+Q9BUF5); test: Disruption of microtubule network in human HepG2 cells cytosol incubated for 12 hrs by DAPI staining based fluorescence microscopic analysis; assay type: subcellular; details: dose 0.5-5 nM
HepG2 [6] = test: Cell cycle arrest in human HepG2 cells assessed as accumulation of cells at G1 phase at 0.5 nM incubated for 48 hrs by RNaseA/PI staining based flow cytometric analysis (reference value: 56.11%); assay type: functional
HepG2 [7] = test: Cell cycle arrest in human HepG2 cells assessed as accumulation of cells at S phase at 0.5 nM incubated for 48 hrs by RNaseA/PI staining based flow cytometric analysis (reference value: 23.81%); assay type: functional
HepG2 [8] = test: Cell cycle arrest in human HepG2 cells assessed as accumulation of cells at G2 phase at 0.5 nM incubated for 48 hrs by RNaseA/PI staining based flow cytometric analysis (reference value: 17.37%); assay type: functional
HepG2 [9] = test: Cell cycle arrest in human HepG2 cells assessed as accumulation of cells at G1 phase at 1 nM incubated for 48 hrs by RNaseA/PI staining based flow cytometric analysis (reference value: 56.11%); assay type: functional
HepG2 [10] = test: Cell cycle arrest in human HepG2 cells assessed as accumulation of cells at S phase at 1 nM incubated for 48 hrs by RNaseA/PI staining based flow cytometric analysis (reference value: 23.81%); assay type: functional
HepG2 [11] = test: Cell cycle arrest in human HepG2 cells assessed as accumulation of cells at G2 phase at 1 nM incubated for 48 hrs by RNaseA/PI staining based flow cytometric analysis (reference value: 17.37%); assay type: functional
HepG2 [12] = test: Cell cycle arrest in human HepG2 cells assessed as accumulation of cells at […] at 5 nM incubated for 48 hrs by RNaseA/PI staining based flow cytometric analysis (reference value: 23.81%); assay type: functional
HepG2 [13] = test: Cell cycle arrest in human HepG2 cells assessed as accumulation of cells at G2 phase at 5 nM incubated for 48 hrs by RNaseA/PI staining based flow cytometric analysis (reference value: 17.37%); assay type: functional
HepG2 [14] = test: Induction of apoptosis in human HepG2 cells assessed as late apoptotic cells at 1 nM incubated for 48 hrs by Annexin V-FITC/PI staining based flow cytometric analysis (reference value: 4.96 %); assay type: functional
HepG2 [15] = test: Antimigratory activity in human HepG2 cells assessed as reduction in recovery area at 0.5 nM incubated for 24 hrs by wound healing assay (reference value: 65.84%); assay type: functional; design: scale not given: the % may be the effect or the level left
[16] = Cytotoxicity against HUVEC cells assessed as inhibition of cell proliferation incubated for 24 hrs by MTT assay; assay type: toxicity, cell-based; details: human
[17] = MRT(0 to t) in Sprague-Dawley rat at 2 mg/kg, iv measured upto 12 hrs by UPLC-MS/ESI analysis; assay type: ADME, organism-based; details: in vivo
[18] = Apparent volume of distribution in Sprague-Dawley rat at 2 mg/kg, iv measured upto 12 hrs by UPLC-MS/ESI analysis; assay type: ADME, organism-based; details: in vivo, read-out: Vz
[19] = AUC (0 to t) in Sprague-Dawley rat at 20 mg/kg, po measured upto 12 hrs by UPLC-MS/ESI analysis; assay type: ADME, organism-based; design: time < 12 hrs, dose 20 mg/kg, route po; details: in vivo
[20] = MRT (0 to t) in Sprague-Dawley rat at 20 mg/kg, po measured upto 12 hrs by UPLC-MS/ESI analysis; assay type: ADME, organism-based; details: in vivo
[21] = MRT (0 to infinity) in Sprague-Dawley rat at 20 mg/kg, po measured upto 12 hrs by UPLC-MS/ESI analysis; assay type: ADME, organism-based; details: in vivo
[22] = Tmax in Sprague-Dawley rat at 20 mg/kg, po measured upto 12 hrs by UPLC-MS/ESI analysis; assay type: ADME, organism-based; details: in vivo
[23] = Clearance in Sprague-Dawley rat at 20 mg/kg, po measured upto 12 hrs by UPLC-MS/ESI analysis; assay type: ADME, organism-based; details: in vivo
[24] = Apparent volume of distribution in Sprague-Dawley rat at 20 mg/kg, po measured upto 12 hrs by UPLC-MS/ESI analysis; assay type: ADME, organism-based; details: in vivo
[25] = Acute toxicity in C57 mouse assessed as survival rate at 51.2 mg/kg, po administered daily for 14 days relative to control; assay type: organism-based; details: in vivo, time 14 day, read-out: Activity
[26] = Acute toxicity in C57 mouse assessed as lethal dose administered orally daily for 14 days; details: in vivo, route po, time 14 day
B16-F10 [27] = test: Antitumor activity against mouse B16-F10 cells implanted in C57 mouse assessed as reduction in tumor volume at 2.5 mg/kg, ip administered every day for 14 days in the presence of NP19; assay type: functional, organism-based; details: time 14.0 day
[28] = Toxicity in C57 mouse implanted with mouse B16-F10 cells assessed as pathological changes in liver at 5 mg/kg, ip administered every day for 14 days by H&E staining based microscopic analysis; assay type: organism-based; details: in vivo, 336 h, time 14 day
[29] = Toxicity in C57 mouse implanted with mouse B16-F10 cells assessed as pathological changes in kidney at 5 mg/kg, ip administered every day for 14 days by H&E staining based microscopic analysis; assay type: organism-based; details: in vivo, 336 h, time 14 day
[30] = Toxicity in C57 mouse implanted with mouse B16-F10 cells assessed as pathological changes in heart at 5 mg/kg, ip administered every day for 14 days by H&E staining based microscopic analysis; assay type: organism-based; details: in vivo, 336 h, time 14 day

Q: For COc1cc(-c2nccc3[nH]c(-c4cccc5c4ccn5C)nc23)cc(OC)c1OC, which Activity (B16-F10 [1]) is on record?
A: 3.34%

Q: And the Activity (B16-F10 [2])?
A: 0.923%

Q: What about the inhibition in vivo at 5 mg/kg (B16-F10 [3]) of the same compound?
A: 63%

Q: What about the IC50 [4] of the same compound?
A: 8.5 nM

Q: What about the “Ratio IC50” value [5] of the same compound?
A: 3.2

Q: What about the IC50 (MCF7) of the same compound?
A: 6 nM

Q: And the IC50 (HeLa)?
A: 9 nM

Q: And the inhibition (Tubulin (Sus scrofa))?
A: Dose-Dependent Effect

Q: And the IC50 (Tubulin)?
A: 1010 nM

Q: What about the Activity (Tubulin (Homo sapiens)) of the same compound?
A: Dose-Dependent Effect

Q: And the Activity (HepG2 [6])?
A: 49.61%

Q: What about the Activity (HepG2 [7]) of the same compound?
A: 27.34%

Q: And the Activity (HepG2 [8])?
A: 20.73%

Q: What about the Activity (HepG2 [9]) of the same compound?
A: 41.37%

Q: And the Activity (HepG2 [10])?
A: 20.35%

Q: And the Activity (HepG2 [11])?
A: 36.46%

Q: And the Activity (HepG2 [12])?
A: 22.8%

Q: What about the Activity (HepG2 [13]) of the same compound?
A: 55.89%

Q: What about the Activity (HepG2 [14]) of the same compound?
A: 8.87%

Q: And the Activity (HepG2 [15])?
A: 42.2%

Q: And the IC50 at 24 h [16]?
A: 62.1 nM

Q: And the MRT last at 12 h [17]?
A: 1.79 h

Q: And the Vd [18]?
A: 1.08 L/kg

Q: And the AUC(0-t) at 12 h [19]?
A: 3.33 µg·h/mL

Q: And the MRT last at 12 h [20]?
A: 3.06 h

Q: What about the MRT inf [21] of the same compound?
A: 3.24 h

Q: And the Tmax [22]?
A: 0.92 h

Q: And the CL/F [23]?
A: 6.43 L/h/kg

Q: What about the Vz [24] of the same compound?
A: 16.84 L/kg

Q: And the survival at 336 h [25]?
A: 90%

Q: What about the LD50 at 336 h [26] of the same compound?
A: 66.9 mg/kg

Q: And the Activity (B16-F10 [27])?
A: Active

Q: What about the Activity [28] of the same compound?
A: Non-Toxic

Q: And the Activity [29]?
A: Non-Toxic

Q: What about the Activity [30] of the same compound?
A: Non-Toxic

Reference: ChEMBL document CHEMBL5338766, “X-ray Crystal Structure-Guided Discovery of Novel Indole Analogues as Colchicine-Binding Site Tubulin Inhibitors with Immune-Potentiating and Antitumor Effects against Melanoma” (J Med Chem, 2023)
